≈ marks a conversion by molar mass, not a printed value. Read-outs that look alike come from different tables or passages of the source.
How the values were obtained:
Klebsiella pneurnoniae = test: MIC test, side-by-side comparison; type: cell-based; settings: for MIC: read-out: MIC Values
Text: (§1) A minimum inhibitory concentration (MIC) value is obtained using a broth, two-fold serial dilution test performed as follows: A stock solution or dispersion of the test compound, typically at a concentration of 1%, is made in a 5:3:2 solvent solution of acetone. methanol, and water. A volume of the stock solution is dispensed into culture media to give an initial starting test concentration of 500 ppm compound.
(§2) When the test is ready to be done, each vessel in the dilution series, except the first vessel, contains an equal volume of compound free broth. The first vessel contains twice the volume of broth with the starting concentration of test compound. One half of the broth from the first vessel is transferred to the second vessel- After being mixed, one half the resulting volume is removed from the second vessel and transferred to the third vessel. The entire cycle is repeated sufficiently to give a series of concentrations amounting to 500, 250, 125, 63, 31, 16, 8, and 4, 2, 1, 0.5, 0.25 ppm respectively.
(§3) Each vessel is then inoculated with a cell suspension of the appropriate test organism. Bacteria are grown in broth, fungi on agar slants for a time and at a temperature appropriate to the species being tested, and algae are a mixture of green algae and blue-green bacteria grown in a nutrient media. At the end of the growth period, in the case of bacteria, the broth is vortexed to disperse the cells.
(§4) In the case of fungi, the spores are harvested by pipetting water onto the slant and dislodging the spores with a sterile loop. The cell/spore suspension is standardized by controlling incubation time, temperature, and the volume of the diluent. The suspension is then used to inoculate the vessels containing the broth compound.
(§5) The vessels are then incubated at the appropriate temperature. After the incubation, the vessels are examined for growth/no growth. The minimum inhibitory concentration (MIC) is defined as the lowest concentration of compound that results in complete inhibition of growth of the test organism.
(§6) These five compounds were tested side-by-side against six organisms, Pseudomonas aeruginosa (P. aeruginosa), Klebsiella pneurnoniae (K. pneumoniae), Enterobacter aerogenes (E. aerogenes), Proteus mirabilis (P. mirabilis), Staphylococcus aureus (S. aureus), and Aspergillus niger (A. niger). The MIC tests were performed as in example 6.

Proteus mirabilis = test: MIC test, side-by-side comparison; type: cell-based; settings: Table 4 side-by-side, P. mirabilis; for MIC: Proteus mirabilis
Text: as §1, §2, §3, §4, §5, §6

Enterobacter aerogenes = test: MIC test, side-by-side comparison; type: cell-based; settings: Table 4 side-by-side, E. Aerogenes; for MIC: Klebsiella aerogenes
Text: as §1, §2, §3, §4, §5, §6

Escherichia coli = test: Broth two-fold serial dilution MIC test; type: cell-based, Escherichia coli (ATCC 11229); settings: Table 2, Ecol
In short: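 Broth two-fold serial dilutions ran from 500 down to 0.25 ppm, prepared from a stock in acetone/methanol/water (5:3:2). Each tube received a standardized bacterial suspension and was incubated at a temperature suited to the species. MIC is the lowest concentration giving complete growth inhibition.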

Aspergillus niger = test: Broth two-fold serial dilution MIC test; type: cell-based, Aspergillus niger (ATCC 6275)
In short: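 Two-fold broth serial dilution from 500 ppm down to 0.25 ppm, compound stock in acetone/methanol/water 5:3:2. Vessels inoculated with standardized spore suspension harvested from agar slants, incubated at a species-appropriate temperature, then scored for growth/no growth. MIC is the lowest concentration giving complete growth inhibition.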

Pseudomonas aeruginosa = test: Broth two-fold serial dilution MIC test; type: cell-based, Pseudomonas aeruginosa (ATCC 15442)
In short: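 Broth two-fold serial dilution MIC (500 to 0.25 ppm) was run against Pseudomonas aeruginosa, with compound from 1% stock in acetone/methanol/water 5:3:2. Vessels inoculated with standardized broth-grown cells were incubated, then scored for growth. MIC is the lowest concentration giving complete growth inhibition.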

Staphylococcus aureus = test: Broth two-fold serial dilution MIC test; type: cell-based, Staphylococcus aureus (ATCC 6538)
In short: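 Broth two-fold serial dilution from 500 ppm down to 0.25 ppm, compound delivered from acetone/methanol/water stock, inoculated with standardized cell suspension and incubated at an organism-appropriate temperature. MIC is the lowest concentration giving complete growth inhibition.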

[1] = Aspergillus niger, Table 4 side-by-side, A. niger, read-out: MIC Values
[2] = Pseudomonas aeruginosa, Table 4 side-by-side, P. aeruginosa, read-out: MIC Values
[3] = Staphylococcus aureus, Table 4 side-by-side, S. aureus, read-out: MIC Values
[4] = Aspergillus niger, Table 2, Anig, TSB media, read-out: MIC
[5] = Escherichia coli, M9G media, read-out: MIC
[6] = Escherichia coli, TSB media, read-out: MIC
[7] = Pseudomonas aeruginosa, Table 2, Psae, M9G media, read-out: MIC
[8] = Pseudomonas aeruginosa, Table 2, Psae, TSB media, read-out: MIC
[9] = Staphylococcus aureus, Table 2, Saur, M9G media, read-out: MIC
[10] = Staphylococcus aureus, Table 2, Saur, TSB media, read-out: MIC

SMILES | MIC (Klebsiella pneurnoniae) [µg/mL] | MIC (Proteus mirabilis) [µg/mL] | MIC (Enterobacter aerogenes) [µg/mL] | MIC (Escherichia coli; M9G media) [ppm] | MIC (Escherichia coli; TSB media) [ppm] | MIC (Aspergillus niger; [1]) [µg/mL] | MIC (Aspergillus niger; Table 2, Anig, TSB media) [ppm] | MIC (Pseudomonas aeruginosa; [2]) [µg/mL] | MIC (Pseudomonas aeruginosa; Table 2, Psae, M9G media) [ppm] | MIC (Pseudomonas aeruginosa; Table 2, Psae, TSB media) [ppm] | MIC (Staphylococcus aureus; [3]) [µg/mL] | MIC (Staphylococcus aureus; Table 2, Saur, M9G media) [ppm] | MIC (Staphylococcus aureus; Table 2, Saur, TSB media) [ppm] | MIC (Aspergillus niger; [4]) [µg/mL] | also measured
CCCCCCCCCCCCCC[N+]1(CC#CI)CCOCC1 [Compound 41, 4-tetradecyl-4-(3-iodoprolyargyl)-morpholinium benzenesulfonate] | 4 | 4 | 2 | < 0.25 | < 0.25 | 8 | 2 | 8 | 2 | 4 | 0.5 | < 0.25 | 0.5 | – | –
IC#CCN1CCOCC1 [Compound J2, N-(3-iodo-2-propynyl)-morpholine, reference compound] | 500 (≈ 1990 µM) | 500 (≈ 1990 µM) | 250 (≈ 996 µM) | – | – | 8 (≈ 31.9 µM) | – | > 500 | – | – | 250 (≈ 996 µM) | – | – | – | –
CCCCCCCCCCCCCC[N+]1(CC#CI)CCCCC1 [Compound 25, 1-(tetradecyl)-1-(3-iodopropargyl)-piperidinium 4-methylbenzenesulfonate] | 4 | 4 | 1 | 2 | 16 | 8 | 8 | 8 | 8 | 2 | 0.5 | 0.25 | 0.25 | – | –
CCCCCCCCCCCCCC[N+]1(CC#CI)CCOCC1 [Compound 42, 4-tetradecyl-4-(3-iodopropargyl)-morpholinium methanesulfonate] | – | – | – | < 0.25 | < 0.25 | – | 1 | – | 1 | 4 | – | < 0.25 | 0.5 | – | MIC Values (Klebsiella pneurnoniae; Table 4 side-by-side, K. Pneumoniae): 4 ppm; MIC Values (Proteus mirabilis): 4 ppm; MIC Values (Enterobacter aerogenes): 1 ppm; MIC Values (Aspergillus niger; Table 4 side-by-side, A. niger): 8 ppm; MIC Values (Pseudomonas aeruginosa; Table 4 side-by-side, P. aeruginosa): 16 ppm; MIC Values (Staphylococcus aureus; Table 4 side-by-side, S. aureus): 1 ppm
IC#CCN1CCCCC1 [Compound J1, N-(3-iodo-2-propynyl)-piperidine, reference compound] | 125 (≈ 502 µM) | 125 (≈ 502 µM) | 32 (≈ 128 µM) | – | – | 16 (≈ 64.2 µM) | – | > 500 | – | – | 125 (≈ 502 µM) | – | – | – | –
CCCCCCCCCCCCCCCC[N+]1(CC#CI)CCCCC1 [Compound 26, 1-(hexadecyl)-1-(3-iodopropargyl)-piperidinium 4-methylbenzenesulfonate] | – | – | – | 4 | 4 | – | – | – | 4 | 16 | – | 0.25 | 0.25 | 16 | –
CCCCCCCCCCC[N+]1(CC#CI)CCCC1 [Compound 15, 1-undecyl-1-(3-iodopropargyl)-pyrrolidinium 4-methylbenzenesulfonate] | – | – | – | – | – | – | – | – | – | – | – | – | – | 16 | MIC (Escherichia coli; [5]): 1 µg/mL; MIC (Escherichia coli; [6]): 2 µg/mL; MIC (Pseudomonas aeruginosa; [7]): 32 µg/mL; MIC (Pseudomonas aeruginosa; [8]): 32 µg/mL; MIC (Staphylococcus aureus; [9]): 0.25 µg/mL; MIC (Staphylococcus aureus; [10]): 0.25 µg/mL
IC#CC[N+]1(Cc2ccccc2)CCOCC1 [Compound 74, 4-benzyl-4-(3-iodopropargyl)-morpholinium methanesulfonate] | – | – | – | 64 | 125 | – | 64 | – | > 500 | > 500 | – | 125 | 250 | – | –
CCCCCCCCCCCCCC[N+]1(CC#CI)CC=CCC1 (centres unmarked) [Compound 53, 1-(tetradecyl)-1-(3-iodopropargyl)-1,2,3,6-tetrahydropyridinium benzenesulfonate] | – | – | – | – | – | – | – | – | – | – | – | – | – | < 0.25 | MIC (Escherichia coli; [5]): 2 µg/mL; MIC (Escherichia coli; [6]): 1 µg/mL; MIC (Pseudomonas aeruginosa; [7]): 8 µg/mL; MIC (Pseudomonas aeruginosa; [8]): 16 µg/mL; MIC (Staphylococcus aureus; [9]): < 0.25 µg/mL; MIC (Staphylococcus aureus; [10]): < 0.25 µg/mL
CCCCCCCCCCCCCC[N+]1(CC#CI)CCCCC1 [Compound 59, 1-tetradecyl-1-(3-iodopropargyl)-piperidinium benzenesulfonate] | – | – | – | 8 | 16 | – | 8 | – | 32 | 125 | – | 4 | 4 | – | –
CCCCCCCC[N+]1(CC#CI)CCCC1 [Compound 12, 1-octyl-1-(3-iodopropargyl)-pyrrolidinium 4-methylbenzenesulfonate] | – | – | – | – | – | – | – | – | – | – | – | – | – | 16 | MIC (Escherichia coli; [5]): 32 µg/mL; MIC (Escherichia coli; [6]): 63 µg/mL; MIC (Pseudomonas aeruginosa; [7]): 500 µg/mL; MIC (Pseudomonas aeruginosa; [8]): > 500 µg/mL; MIC (Staphylococcus aureus; [9]): 2 µg/mL; MIC (Staphylococcus aureus; [10]): 16 µg/mL
CCCCCCCCCCCCCCC[N+]1(CC#CI)CCCC1 [Compound 33, 1-pentadecyl-1-(3-iodopropargyl)-pyrrolidinium benzenesulfonate] | – | – | – | 1 | 2 | – | < 0.25 | – | 8 | 32 | – | < 0.25 | < 0.25 | – | –
CCCCCCCCCCCCCC[N+]1(CC#CI)CCCC1 [Compound 69, 1-tetradecyl-1-(3-iodopropargyl)-pyrrolidinium bromide] | – | – | – | 1 | 4 | – | 4 | – | 8 | 32 | – | 0.25 | 0.25 | – | –
